Laboratory results published in patent US20080058272A1, “Nonamer Peptides for Cancer Treatment” (priority 2006, published 2008).

System: PBMC of melanoma patients
Assay: Flow cytometry with HLA-A2/FAPα peptide multimers after in vitro stimulation
Assay type: cell-based, human
Method: The human HLA-A*0201-positive cell lines T2, a TAP-deficient T cell leukemia/B cell line hybrid and JY, a B-LCL were cultured in RPMI 1640 supplemented with 10% heat inactivated FCS. After informed consent peripheral blood lymphocytes (PBLs) were collected from HLA-A2-positive patients with advanced malignant melanoma. PBLs from HLA-A2-positive healthy individuals were used as controls. PBLs were isolated using Lymphoprep separation (Axis-Shield PoC AS, Oslo, Norway) according to the manufacturer's instructions and used directly or frozen in FCS with 10% DMSO. PBL were cultured in RPMI/10% human AB serum. Dendritic cells (DCs) were generated from PBMC by adherence on culture dishes at 37° C. for 60 minutes in RPMI enriched with 10% human AB serum. […]
After peptide-specific stimulation with FAPα peptides or with FAPα mRNA transfected DC, generated as described previously (Fassnacht et al. 2005) PBLs were stained with HLA-A2/FAPα peptide FITC-labeled multimers (a kind gift of Jorgen Scholler, Dako, Glostrup, Denmark) in PBS/0.1% BSA/FCS for 30 min in the dark, followed by staining with anti-CD8-PE (Dako, Glostrup, Denmark) for 30 min at 4° C. in the dark. Samples were analyzed on BD FACS Canto (Becton Dickinson, Heidelberg, Germany) using WinMDi or FCS Express V3.

GLFKCGIAV (listed as Homo sapiens) [FAPα^639-647]
detection of HLA-A2/FAPα^639-647 specific T cells (after in vitro stimulation with FAPα peptide-loaded dendritic cells): able to detect | detection of HLA-A2/FAPα^639-647 specific T cells (after stimulation with DCs transfected with FAPα mRNA): can be detected
